Laboratory results reported in the supplement of paper PMC13380429.

What was measured:
Conditions in all cases: 72 h
[1] = tested on: Caco-2; test: cell viability relative to DMSO; higher = less toxic
[2] = tested on: Calu-3; test: as above
[3] = tested on: HepG2; test: as above
[4] = tested on: U2OS; test: as above
[5] = tested on: Vero E6; test: as above
[6] = tested on: Caco-2; test: relative viability EC50 (midpoint between 100% and the lowest measured viability); higher = less toxic
[7] = tested on: Calu-3; test: as above
[8] = tested on: HepG2; test: as above
[9] = tested on: U2OS; test: as above
[10] = tested on: Vero E6; test: as above
[11] = tested on: Caco-2; test: drug sensitivity score (DSS) for viability; higher = more toxic; extreme values may be limits of the assay
[12] = tested on: Calu-3; test: as above
[13] = tested on: HepG2; test: as above
[14] = tested on: U2OS; test: as above
[15] = tested on: Vero E6; test: as above

Row | SMILES | cell viability ([1]; 1 nM) [%] | cell viability ([1]; 10 nM) [%] | cell viability ([1]; 100 nM) [%] | cell viability ([1]; 1000 nM) [%] | cell viability ([1]; 10000 nM) [%] | cell viability ([2]; 1 nM) [%] | cell viability ([2]; 10 nM) [%] | cell viability ([2]; 100 nM) [%] | cell viability ([2]; 1000 nM) [%] | cell viability ([2]; 10000 nM) [%] | cell viability ([3]; 1 nM) [%] | cell viability ([3]; 10 nM) [%] | cell viability ([3]; 100 nM) [%] | cell viability ([3]; 1000 nM) [%] | cell viability ([3]; 10000 nM) [%] | cell viability ([4]; 1 nM) [%] | cell viability ([4]; 10 nM) [%] | cell viability ([4]; 100 nM) [%] | cell viability ([4]; 1000 nM) [%] | cell viability ([4]; 10000 nM) [%] | cell viability ([5]; 1 nM) [%] | cell viability ([5]; 10 nM) [%] | cell viability ([5]; 100 nM) [%] | cell viability ([5]; 1000 nM) [%] | cell viability ([5]; 10000 nM) [%] | relative viability EC50 [6] [µM] | relative viability EC50 [7] [µM] | relative viability EC50 [8] [µM] | relative viability EC50 [9] [µM] | relative viability EC50 [10] [µM] | drug sensitivity score [11] | drug sensitivity score [12] | drug sensitivity score [13] | drug sensitivity score [14] | drug sensitivity score [15]
1 | CC[C@@H](c1ccc(F)c(F)c1)n1c(C(=O)OC)c(-c2ccno2)[nH]c1=S | 97.9 | 98.3 | 98.4 | 96.9 | 94.2 | 96.1 | 95.1 | 98.6 | 91.3 | 99.8 | 115 | 98.8 | 93.3 | 99.7 | 90.4 | 99.7 | 94 | 98.9 | 96 | 95.7 | 103 | 95.4 | 97.8 | 99.9 | 96.7 | > 10 | > 10 | > 10 | > 10 | > 10 | 0 | 0 | 0 | 0 | 0
2 | CN(C)C(=O)[C@H](O)[C@H](Cc1ccccc1)NC(=O)c1cc2cc(Cl)ccc2[nH]1 | 87.2 | 97 | 96.2 | 106 | 96.8 | 96.2 | 104 | 97 | 102 | 102 | 103 | 96 | 106 | 105 | 106 | 95.4 | 102 | 90.5 | 95.3 | 97 | 108 | 94.6 | 102 | 98.3 | 106 | > 10 | > 10 | > 10 | > 10 | > 10 | 0 | 0 | 0 | 0 | 0
3 | CN1C(=O)N(c2cc(Cl)cc(Cl)c2)C(=O)[C@]12CN(c1ccc(C(=O)O)cn1)C[C@H]2c1ccc(C#N)cc1 | 93.9 | 98.4 | 97.5 | 89 | 97.3 | 104 | 90.8 | 93.7 | 111 | 107 | 104 | 93.1 | 91.5 | 96.9 | 106 | 98.8 | 96.5 | 100 | 101 | 94.4 | 99.4 | 102 | 101 | 93.7 | 103 | > 10 | > 10 | > 10 | > 10 | > 10 | 0 | 0 | 0 | 0 | 0
4 | CN1CCN(c2nc3ccccc3nc2Cl)CC1 | 89.4 | 90.5 | 98.3 | 88.4 | 91.6 | 93.4 | 105 | 106 | 92.4 | 98.3 | 97.2 | 92.9 | 104 | 93 | 95.9 | 95.9 | 97.6 | 99 | 103 | 96.3 | 101 | 102 | 103 | 94.2 | 97.5 | > 10 | > 10 | > 10 | > 10 | > 10 | 0 | 0 | 0 | 0 | 0
5 | Cc1c(Cc2ccc3ccccc3n2)c2cc(F)ccc2n1CC(=O)O | 94.6 | 99.4 | 98.7 | 98.4 | 109 | 95.8 | 108 | 96.8 | 110 | 111 | 119 | 96.9 | 109 | 108 | 105 | 94.7 | 101 | 95.4 | 97.9 | 108 | 102 | 96.7 | 99.5 | 97.8 | 101 | > 10 | > 10 | > 10 | > 10 | > 10 | 0 | 0 | 0 | 0 | 0
6 | NC(=O)CCCCn1ccc(/N=C(\N)NCC(F)(F)F)n1 | 98.8 | 97.8 | 104 | 92.6 | 97.6 | 110 | 96.5 | 107 | 99.4 | 102 | 103 | 97.7 | 98.1 | 105 | 105 | 98.8 | 104 | 104 | 99.9 | 99.5 | 106 | 103 | 104 | 102 | 99.7 | > 10 | > 10 | > 10 | > 10 | > 10 | 0 | 0 | 0 | 0 | 0
